Laboratory results published in US20110045083A1, “USE LARCH WOOD FOR TREATING INFLAMMATION” (priority 2007, published 2011).
Values joined by “and” are separate entries in the source; they are usually repeats but may differ in a detail not shown here. Identical values can stand only once. “Also recorded” adds a separate entry of the source. Like-named read-outs stand apart in the source and are kept apart here.

Key:
[1] = biological target: T1, COX-2 (purified PGHS-2) (Ovis aries, UniProt P79208); experiment: COX-2 assay, purified enzyme, PGE2 EIA; format: biochemical, sheep; conditions: for inhibition at 50 µM: screening concentration 50 μM
T1 construct: purified PGHS-2 (COX-2) from sheep placental cotyledones; purchased Cayman Chemical Company, Ann Arbor, Mich., USA; host or cells: sheep placental cotyledons (tissue-purified)
T1 sequence (P79208 17-603): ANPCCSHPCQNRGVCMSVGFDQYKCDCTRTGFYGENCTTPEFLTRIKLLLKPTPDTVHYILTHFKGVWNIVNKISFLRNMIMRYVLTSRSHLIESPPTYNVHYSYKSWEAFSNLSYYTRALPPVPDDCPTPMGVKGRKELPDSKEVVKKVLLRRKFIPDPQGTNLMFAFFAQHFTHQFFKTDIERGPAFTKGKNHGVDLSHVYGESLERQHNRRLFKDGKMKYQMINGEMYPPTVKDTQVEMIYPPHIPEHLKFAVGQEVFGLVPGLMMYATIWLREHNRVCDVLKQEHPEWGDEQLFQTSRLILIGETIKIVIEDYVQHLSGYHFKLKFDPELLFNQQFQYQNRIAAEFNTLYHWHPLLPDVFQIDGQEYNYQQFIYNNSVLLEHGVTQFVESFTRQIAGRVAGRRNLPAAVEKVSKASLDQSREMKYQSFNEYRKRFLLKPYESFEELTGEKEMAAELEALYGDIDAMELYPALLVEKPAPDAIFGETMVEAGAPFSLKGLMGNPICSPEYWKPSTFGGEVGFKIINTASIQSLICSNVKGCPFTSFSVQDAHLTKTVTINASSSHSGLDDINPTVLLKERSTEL
Protocol: (§1) Principle: The purified enzymes COX-1 and COX-2 are incubated with a defined concentration of test sample and arachidonic acid. After stopping the enzymatic reaction by addition of formic acid and dilution, the produced PGE2 is quantified by means of a PGE2 EIA kit.
(§2) Sample preparation: The test samples (extracts and pure compounds) are dissolved in ethanol. Extracts are tested in concentrations of 20 μg/ml for screening. Pure compounds are tested in concentrations of 50 μM for screening.
(§3) Incubation procedure: The assays are performed in a microtiter scale with purified PGHS-1 (COX-1) from ram seminal vesicles and purified PGHS-2 (COX-2) from sheep placental cotyledones (both: Cayman Chemical Company, Ann Arbor, Mich., USA). The incubation mixture consists of 180 μl 0.1 M TRIS/HCl-buffer (pH 8.0) (Roth, Karlsruhe, Germany), 5 μM hematin, (porcine, ICN, Aurora, Ohio, USA), 18 mM epinephrine hydrogen tartrate (Fluka, Buchs, Switzerland), 0.2 U of enzyme preparation and 50 μM Na2EDTA (only COX-2 assay, Titriplex III, Merck, Darmstadt, Germany). 10 μl of each test solution are added and the mixture is preincubated for 5 min at room temperature. The reaction is started by adding 10 μl of 5 μM arachidonic acid (Cayman Chemical Company) in EtOH p.a. and the reaction mixture is incubated at 37° C. The reaction is terminated after 20 min by addition of 10 μl of 10% formic acid.
(§4) PGE2 EIA: The concentration of PGE2, the main arachidonic acid metabolite in this reaction, is determined by a competitive PGE2 EIA kit (Assay Designs Inc., Ann Arbor, Mich., USA). All samples are diluted in EIA buffer. The EIA is incubated for 2 hours at room temperature on an orbital shaker. After a washing step, 200 μl of substrate solution are added to each well, and the EIA is incubated for 1 hour at room temperature. After addition of 50 μl stop solution, the EIA is evaluated photometrically by an ELISA microplate reader.
(§5) Inhibition of COX refers to reduction of PGE2 formation in comparison to a blank run without inhibitor. Inhibition values are means of at least 2 experiments and each sample is tested in duplicate. […] IC50 values of active samples were determined by testing at least 3 concentrations in 3 different experiments, in duplicate each. IC50 was calculated by logarithmic regression after graphical representation.

[2] = biological target: T2, COX-1 (purified PGHS-1) (Ovis aries, UniProt P05979); experiment: COX-1 assay, purified enzyme, PGE2 EIA; format: biochemical, ram; conditions: for inhibition at 50 µM: screening concentration 50 μM
T2 construct: purified PGHS-1 (COX-1) from ram seminal vesicles; purchased Cayman Chemical Company, Ann Arbor, Mich., USA; host or cells: ram seminal vesicles (tissue-purified)
T2 sequence (P05979 25-600): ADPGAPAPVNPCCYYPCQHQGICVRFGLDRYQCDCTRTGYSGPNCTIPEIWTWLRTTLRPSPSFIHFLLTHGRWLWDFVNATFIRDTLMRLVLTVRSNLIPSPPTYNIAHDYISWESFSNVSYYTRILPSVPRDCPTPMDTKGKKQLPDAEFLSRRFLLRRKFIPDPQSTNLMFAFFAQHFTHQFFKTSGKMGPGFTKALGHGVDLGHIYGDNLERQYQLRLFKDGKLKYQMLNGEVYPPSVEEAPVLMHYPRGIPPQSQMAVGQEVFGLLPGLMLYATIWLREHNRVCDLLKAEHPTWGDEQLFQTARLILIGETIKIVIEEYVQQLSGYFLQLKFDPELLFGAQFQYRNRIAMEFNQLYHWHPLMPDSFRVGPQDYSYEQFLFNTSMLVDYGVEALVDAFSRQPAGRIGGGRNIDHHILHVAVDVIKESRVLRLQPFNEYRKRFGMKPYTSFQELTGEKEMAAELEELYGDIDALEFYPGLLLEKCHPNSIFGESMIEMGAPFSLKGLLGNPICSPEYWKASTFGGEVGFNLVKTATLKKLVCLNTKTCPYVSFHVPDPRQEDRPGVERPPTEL
Protocol: as §1, §2, §3, §4, §5

Row | Compound | IC50 COX-2 [1] | inhibition at 50 µM [1] | IC50 COX-1 [2] | inhibition at 50 µM [2] | IC50 COX-2 ([1]; listed as dehydroabietinol) | IC50 COX-1 ([2]; listed as dehydroabietinol) | IC50 COX-2 ([1]; listed as larixol) | IC50 COX-1 ([2]; listed as larixol) | IC50 ([1]; read-out: IC50 COX-2) | IC50 ([1]; IC50 COX-2) | IC50 COX-1 ([2]; listed as palustric acid)
1 | CC(C)c1ccc2c(c1)CCC1C(C)(C(=O)O)CCCC21C (stereo not drawn) [Dehydroabietic acid] | Inactive | -6 ± 9% | Inactive | 2.9 ± 7.8% | – | – | – | – | – | – | –
2 | CC(C)c1ccc2c(c1)CCC1C(C)(CO)CCCC21C (stereo not drawn) [Dehydroabietinol] | Inactive | 7.7 ± 8% | Inactive | -1.6 ± 4.6% | inactive | inactive | – | – | – | – | –
3 | C=C[C@@]1(C)CC[C@H]2C(=CC[C@@H]3[C@]2(C)CCC[C@@]3(C)C(=O)O)C1 [Isopimaric acid] | without inhibiting; also recorded: Inactive | 3.5 ± 6.2% | without inhibiting; also recorded: Inactive | 15.7 ± 7.1% | – | – | – | – | – | – | –
4 | C=CC(C)(O)CCC1C(=C)CC(O)C2C(C)(C)CCCC12C (stereo not drawn) [Larixol] | Inactive | 8.7 ± 3.8% | Inactive | 2.1 ± 4.7% | – | – | inactive | inactive | – | – | –
5 | C=CC(C)(O)CCC1C(=C)CC(OC(C)=O)C2C(C)(C)CCCC12C (stereo not drawn) [Larixyl acetate] | devoid of COX-2inhibitory activity | 38.5 ± 5.9% | Inactive | 0.2 ± 5.9% | – | – | – | – | 95 µM and 95.1 µM | – | –
6 | CC(C)C1=CC2=C(CC1)C1(C)CCCC(C)(C(=O)O)C1CC2 (stereo not drawn) [Palustric acid] | – | 49.5 ± 3.5% | Inactive | 13.5 ± 4.7% | – | – | – | – | – | 57.9 µM | without inhibiting
